Assay results: US6001884A, “Calcium receptor-active molecules” (NPS Pharmaceuticals, Inc., priority 1995, dated 1999)
Counter-ions that a name gives are not always drawn.

The molecules below were run against T1, calcium receptor (Homo sapiens, UniProt P41180) (assay: EC50 (concentration evoking a half-maximal effect) at an inorganic ion receptor / calcium receptor). Conditions: not given.
T1 sequence (P41180 20-1078): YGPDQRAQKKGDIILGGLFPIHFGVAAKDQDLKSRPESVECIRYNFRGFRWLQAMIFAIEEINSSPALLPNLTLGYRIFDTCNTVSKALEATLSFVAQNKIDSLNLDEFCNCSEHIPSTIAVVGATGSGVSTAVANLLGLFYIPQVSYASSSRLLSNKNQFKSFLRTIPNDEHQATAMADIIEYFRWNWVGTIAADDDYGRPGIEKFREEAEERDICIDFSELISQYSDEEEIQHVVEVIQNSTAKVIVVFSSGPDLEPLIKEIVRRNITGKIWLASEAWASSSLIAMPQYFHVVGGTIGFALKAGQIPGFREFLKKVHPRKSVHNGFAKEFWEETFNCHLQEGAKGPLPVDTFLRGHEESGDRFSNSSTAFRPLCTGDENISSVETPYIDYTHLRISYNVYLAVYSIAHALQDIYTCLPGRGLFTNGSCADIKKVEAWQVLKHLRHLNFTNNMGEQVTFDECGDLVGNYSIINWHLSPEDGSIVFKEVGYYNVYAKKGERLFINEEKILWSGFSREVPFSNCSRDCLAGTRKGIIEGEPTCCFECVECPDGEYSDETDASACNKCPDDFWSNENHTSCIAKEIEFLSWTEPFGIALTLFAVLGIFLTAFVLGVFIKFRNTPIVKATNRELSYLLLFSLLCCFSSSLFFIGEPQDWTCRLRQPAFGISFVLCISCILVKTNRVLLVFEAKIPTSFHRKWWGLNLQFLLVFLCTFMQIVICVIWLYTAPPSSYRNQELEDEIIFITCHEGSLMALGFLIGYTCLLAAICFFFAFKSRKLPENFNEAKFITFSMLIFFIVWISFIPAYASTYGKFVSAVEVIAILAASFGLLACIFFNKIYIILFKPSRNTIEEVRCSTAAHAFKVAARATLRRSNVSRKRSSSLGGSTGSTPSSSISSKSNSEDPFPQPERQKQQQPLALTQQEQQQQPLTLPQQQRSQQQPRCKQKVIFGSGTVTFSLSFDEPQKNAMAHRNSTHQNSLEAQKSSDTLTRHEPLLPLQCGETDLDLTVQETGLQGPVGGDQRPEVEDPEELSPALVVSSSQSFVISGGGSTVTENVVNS
Type: cell-based
From the text: The EC50 is the concentration of the molecule which evokes a half-maximal effect. The IC50 is the concentration of molecule which causes a half-maximal blocking effect. The EC50 or IC50 can be determined by assaying one or more of the activities of an inorganic ion at an inorganic ion receptor. Preferably, such assays are specific to a particular calcium receptor. For example, assays which measure hormones whose production or secretion is modulated by a particular inorganic ion receptor are preferred.
Nemeth et al., PCT/US93/01642, International Publication Number WO 94/18959. For example, poly(A)^+ mRNA can be obtained from cells expressing a calcium receptor, such as a parathyroid cell, bone osteoclast, juxtaglomerular kidney cell, proximal tubule kidney cell, distal tubule kidney cell, cell of the thick ascending limb of Henle's loop and/or collecting duct, keratinocyte in the epidermis, parafollicular cell in the thyroid (C-cell), intestinal cell, central nervous cell, peripheral nervous system cell, trophoblast in the placenta, platelet, vascular smooth muscle cell, cardiac atrial cell, gastrin-secreting cell, glucagon-secreting cell, kidney mesangial cell, mammary cell, beta cell, fat/adipose cell, immune cell, and GI tract cell. Preferably, the nucleic acid is from a parathyroid cell, C-cell, or osteoclast. More preferably, the nucleic acid encodes a calcium receptor and is present on a plasmid or vector.

Structure (SMILES) | EC50 [µM]
C[C@@H](NCCCc1ccccc1Cl)c1cccc2ccccc12 [Compound 12Z, N-3-(2-chlorophenyl)-1-propyl-(R)-1-(1-naphthyl)ethylamine hydrochloride] | < 5

Same assay, conditions: concentration of the molecule which evokes a half-maximal effect; preferred agents; cell type and assay read-out not stated; read-out: EC50

Structure (SMILES) | EC50 [µM]
COc1ccc([C@@H](C)N[C@H](C)c2cccc3ccccc23)cc1C [Compound 16P, (R)-N-(1-(4-Methoxy-3-methylphenyl)ethyl)-(R)-1-(1-naphthyl)ethylamine hydrochloride] | < 5
COc1ccc([C@@H](C)N[C@H](C)c2cccc3ccccc23)cc1 [Compound 14U, (R)-N-(1-(4-methoxyphenyl)ethyl)-(R)-1-(1-naphthyl)ethylamine hydrochloride] | < 5
COc1ccc(CN[C@H](C)c2cccc3ccccc23)cc1Cl [Compound 16M, N-(3-chloro-4-methoxybenzyl)-(R)-1-(1-naphthyl)ethylamine hydrochloride] | < 5
CC(C)c1ccc(CN[C@H](C)c2cccc3ccccc23)cc1 [Compound 11X, N-(4-Isopropylbenzyl)-(R)-1-(1-naphthyl)ethylamine hydrochloride] | < 5
COc1cccc([C@@H](C)NCCCc2ccccc2OC)c1 [Compound 8U, N-3-(2-methoxyphenyl)-1-propyl-(R)-3-methoxy-α-methylbenzylamine hydrochloride] | < 5
CSc1cccc(C(C)NCCCc2ccccc2)c1 (racemic) [Compound 8J, N-(3-phenylpropyl)-1-(3-thiomethylphenyl)ethylamine hydrochloride] | < 5
COc1cccc([C@@H](C)NCCCc2cccc(C)c2)c1 [Compound 12V, N-3-(3-methylphenyl)-1-propyl-(R)-3-methoxy-α-methylbenzylamine hydrochloride] | < 5
C[C@@H](N[C@H](C)c1cccc2ccccc12)c1ccc2ccccc2c1 [Compound 9R, (R)-N-(1-(2-naphthyl)ethyl)-(R)-1-(1-naphthyl)ethylamine hydrochloride] | < 5
COc1cccc([C@@H](C)NCCCc2ccccc2C)c1 [Compound 12U, N-3-(2-methylphenyl)-1-propyl-(R)-3-methoxy-α-methylbenzylamine hydrochloride] | < 5
